Assay results published in ChEMBL document CHEMBL1201862, “PubChem BioAssay data set” (2004).
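Five concentrations, 48 hours, 96-well plates. GI50 = concentration required for 50% inhibition of growth.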 Calls of active or inactive are those of the source. No stated cut-off is given here; in the data, active = GI50 up to about 1.1 µM and inactive = higher.

Experiments:
Assay in all cases: NCI tumour cell line growth inhibition, 48 h
[1] = system: 786-0
[2] = system: A498
[3] = system: A549
[4] = system: ACHN
[5] = system: CAKI-1
[6] = system: CCRF-CEM
[7] = system: COLO 205
[8] = system: DU-145
[9] = system: EKVX
[10] = system: HCC 2998
[11] = system: HCT-116
[12] = system: HCT-15
[13] = system: HL-60
[14] = system: HOP-62
[15] = system: HOP-92
[16] = system: HT-29
[17] = system: Hs-578T
[18] = system: IGROV-1
[19] = system: K562
[20] = system: KM12
[21] = system: LOX IMVI
[22] = system: M14
[23] = system: MCF7
[24] = system: MDA-MB-231
[25] = system: MDA-MB-435
[26] = system: MDA-N
[27] = system: MOLT-4
[28] = system: Malme-3M
[29] = system: NCI-H226
[30] = system: NCI-H23
[31] = system: NCI-H460
[32] = system: NCI-H522
[33] = system: NCI/ADR-RES
[34] = system: OVCAR-3
[35] = system: OVCAR-4
[36] = system: OVCAR-5
[37] = system: OVCAR-8
[38] = system: PC-3
[39] = system: RPMI-8226
[40] = system: RXF 393
[41] = system: SF-268
[42] = system: SF-295
[43] = system: SF-539
[44] = system: SK-MEL-28
[45] = system: SK-MEL-2
[46] = system: SK-MEL-5
[47] = system: SK-OV-3
[48] = system: SN12C
[49] = system: SNB-19
[50] = system: SNB-75
[51] = system: SR
[52] = system: SW-620
[53] = system: T47D
[54] = system: TK-10
[55] = system: U-251
[56] = system: UACC-257
[57] = system: UACC-62
[58] = system: UO-31
[59] = system: BT-549

CC(C)(C)COC(=O)C(C)(C)NC(=O)C(CC(=O)OCc1ccccc1)NC(=O)OCc1ccccc1 (stereo unspecified)
GI50 [1]: > 100 µM (inactive)
GI50 [2]: 28.2 µM (inactive)
GI50 [3]: 29.7 µM (inactive)
GI50 [4]: 32.9 µM (inactive)
GI50 [5]: 58.2 µM (inactive)
GI50 [6]: 25.3 µM (inactive)
GI50 [7]: 21 µM (inactive)
GI50 [8]: 62.2 µM (inactive)
GI50 [9]: 54.3 µM (inactive)
GI50 [10]: 35.3 µM (inactive)
GI50 [11]: 32.7 µM (inactive)
GI50 [12]: 25.6 µM
GI50 [13]: 46.5 µM (inactive)
GI50 [14]: 75 µM (inactive)
GI50 [15]: 53.1 µM (inactive)
GI50 [16]: 24.8 µM (inactive)
GI50 [17]: 27.9 µM (inactive)
GI50 [18]: 61 µM (inactive)
GI50 [19]: 30.1 µM (inactive)
GI50 [20]: 35.2 µM (inactive)
GI50 [21]: 43.5 µM (inactive)
GI50 [22]: 32.1 µM (inactive)
GI50 [23]: 32.4 µM (inactive)
GI50 [24]: 42.9 µM (inactive)
GI50 [25]: 25.8 µM (inactive)
GI50 [26]: 30.9 µM (inactive)
GI50 [27]: 17.6 µM (inactive)
GI50 [28]: 29.6 µM (inactive)
GI50 [29]: 29.2 µM (inactive)
GI50 [30]: 26.7 µM (inactive)
GI50 [31]: 30 µM (inactive)
GI50 [32]: 24 µM (inactive)
GI50 [33]: 36.8 µM (inactive)
GI50 [34]: 41.4 µM (inactive)
GI50 [35]: 50.5 µM (inactive)
GI50 [36]: 26.8 µM (inactive)
GI50 [37]: 40.1 µM (inactive)
GI50 [38]: 25.7 µM (inactive)
GI50 [39]: 26.5 µM (inactive)
GI50 [40]: > 100 µM (inactive)
GI50 [41]: 87.1 µM (inactive)
GI50 [42]: 34.4 µM (inactive)
GI50 [43]: 25.1 µM (inactive)
GI50 [44]: > 100 µM (inactive)
GI50 [45]: 49 µM (inactive)
GI50 [46]: 11.1 µM (inactive)
GI50 [47]: 35.4 µM (inactive)
GI50 [48]: 25.6 µM (inactive)
GI50 [49]: 38.3 µM (inactive)
GI50 [50]: 13.9 µM (inactive)
GI50 [51]: 25.5 µM (inactive)
GI50 [52]: 60.4 µM (inactive)
GI50 [53]: 20.2 µM (inactive)
GI50 [54]: 19.4 µM (inactive)
GI50 [55]: 31.5 µM (inactive)
GI50 [56]: 25.5 µM (inactive)
GI50 [57]: 19.5 µM (inactive)
GI50 [58]: 24 µM (inactive)

O=C(/C=C/c1cccc(Br)c1)c1cccs1
GI50 [1]: 15.8 µM (inactive)
GI50 [2]: 16.5 µM (inactive)
GI50 [3]: 17.4 µM (inactive)
GI50 [4]: 20.1 µM (inactive)
GI50 [5]: 16.1 µM (inactive)
GI50 [6]: 4.23 µM (inactive)
GI50 [7]: 21 µM (inactive)
GI50 [8]: > 10 µM (inactive)
GI50 [9]: 18.5 µM (inactive)
GI50 [10]: 23 µM (inactive)
GI50 [11]: 5.47 µM (inactive)
GI50 [12]: 14.6 µM
GI50 [13]: 3.83 µM (inactive)
GI50 [14]: 26 µM (inactive)
GI50 [16]: 11.5 µM (inactive)
GI50 [17]: 27.9 µM (inactive)
GI50 [18]: 17.1 µM (inactive)
GI50 [19]: 3.13 µM (inactive)
GI50 [20]: 13.7 µM (inactive)
GI50 [22]: 25.1 µM (inactive)
GI50 [23]: 3.44 µM (inactive)
GI50 [24]: 16.7 µM (inactive)
GI50 [25]: 11.7 µM (inactive)
GI50 [26]: 10.3 µM (inactive)
GI50 [27]: 15.3 µM (inactive)
GI50 [28]: 22.1 µM (inactive)
GI50 [29]: 17.9 µM (inactive)
GI50 [30]: 19.5 µM (inactive)
GI50 [31]: 16.2 µM (inactive)
GI50 [33]: 23.6 µM (inactive)
GI50 [35]: 16.5 µM (inactive)
GI50 [37]: 17.7 µM (inactive)
GI50 [38]: 17.5 µM (inactive)
GI50 [39]: 2.09 µM (inactive)
GI50 [41]: 19.6 µM (inactive)
GI50 [42]: 16.6 µM (inactive)
GI50 [43]: 18 µM (inactive)
GI50 [44]: 18.1 µM (inactive)
GI50 [45]: 17.7 µM (inactive)
GI50 [46]: 16.9 µM (inactive)
GI50 [47]: 23.8 µM (inactive)
GI50 [48]: 14.7 µM (inactive)
GI50 [49]: 14.2 µM (inactive)
GI50 [50]: 14.6 µM (inactive)
GI50 [51]: 10.1 µM (inactive)
GI50 [52]: 9.35 µM (inactive)
GI50 [53]: 15.3 µM (inactive)
GI50 [54]: 16.4 µM (inactive)
GI50 [55]: 13.9 µM (inactive)
GI50 [56]: 18.4 µM (inactive)
GI50 [57]: 16.2 µM (inactive)
GI50 [58]: 13 µM (inactive)

O=C(NNC(=S)NC1CCCCC1)c1csc(NC(=S)NC2CCCCC2)n1
GI50 [1]: 7.64 µM (inactive)
GI50 [2]: 21.5 µM (inactive)
GI50 [3]: 7.89 µM (inactive)
GI50 [4]: 3.54 µM (inactive)
GI50 [59]: 2.9 µM (inactive)
GI50 [5]: 7.23 µM (inactive)
GI50 [6]: 5.73 µM (inactive)
GI50 [7]: 3.22 µM (inactive)
GI50 [8]: 14.9 µM (inactive)
GI50 [9]: > 100 µM (inactive)
GI50 [10]: 3.12 µM (inactive)
GI50 [11]: 4.27 µM (inactive)
GI50 [12]: 0.463 µM
GI50 [13]: > 100 µM (inactive)
GI50 [14]: 12.4 µM (inactive)
GI50 [16]: > 100 µM (inactive)
GI50 [18]: 3.52 µM (inactive)
GI50 [20]: 10.6 µM (inactive)
GI50 [21]: 4.9 µM (inactive)
GI50 [22]: 3.46 µM (inactive)
GI50 [23]: 7.55 µM (inactive)
GI50 [24]: 17.8 µM (inactive)
GI50 [25]: 10.8 µM (inactive)
GI50 [27]: 3.42 µM (inactive)
GI50 [28]: 11.2 µM (inactive)
GI50 [29]: 66.7 µM (inactive)
GI50 [30]: 10.4 µM (inactive)
GI50 [32]: 12 µM (inactive)
GI50 [33]: 2.74 µM (inactive)
GI50 [34]: 4.04 µM (inactive)
GI50 [36]: 12.8 µM (inactive)
GI50 [37]: 2.25 µM (inactive)
GI50 [38]: 10.9 µM (inactive)
GI50 [39]: 9.86 µM (inactive)
GI50 [41]: 6.21 µM (inactive)
GI50 [42]: 5.87 µM (inactive)
GI50 [43]: 4.58 µM (inactive)
GI50 [45]: 15.5 µM (inactive)
GI50 [46]: 2.01 µM (inactive)
GI50 [47]: 11.7 µM (inactive)
GI50 [48]: 5.6 µM (inactive)
GI50 [49]: 12 µM (inactive)
GI50 [50]: > 10 µM (inactive)
GI50 [51]: 5.4 µM (inactive)
GI50 [52]: 5.13 µM (inactive)
GI50 [53]: 13.1 µM (inactive)
GI50 [54]: 6.38 µM (inactive)
GI50 [55]: 5.73 µM (inactive)
GI50 [56]: 3.24 µM (inactive)
GI50 [57]: 4.45 µM (inactive)
GI50 [58]: 0.948 µM (active)
